In US9101785B2, “Use of 2,3-dihydroxypropyl dodecanoate for treating seborrhoea” (PIERRE FABRE DERMO-COSMETIQUE, priority 2009, dated 2015):

Test system: 5-α reductase enzyme
Assay: Inhibition of 5-α reductase activity: conversion of [4-14C]testosterone to DHT by normal human dermal fibroblasts (NHDF)
Type: cell-based

Compound	5-α reductase enzyme activity (reduced to) (75 μM test compound, 24 h pre-incubation then 24 h with radiolabelled testosterone, DHT quantified by TLC/phosphorImager) [%]	inhibition of 5-α reductase activity (in words) (dose-effect observed, FIG. 1)	testosterone metabolisation to DHT / 5-α reductase activity (in words) (positive control tested at 10 μM)
CCCCCCCCCCCC(=O)OCC(O)CO (stereo not drawn) [2,3-dihydroxypropyl dodecanoate]	66	inhibition of 5-α reductase activity is also observed	
CC(C)(C)NC(=O)[C@H]1CC[C@H]2[C@@H]3CC[C@H]4NC(=O)C=C[C@]4(C)[C@H]3CC[C@]12C [finasteride, reference compound]			lowers testosterone metabolisation to DHT significantly
